Patent EP3290417A1, “2-CHLORO-N-[2-(1,3-THIAZOL-5-YL)ETHYL]-5-(5-FLUOROPYRIMIDIN-2-YL)-BENZAMIDES AND THEIR USE AS P2X7 RECEPTOR ANTAGONISTS” (AXXAM S.p.A., priority 2016, dated 2018)

Legend:
human P2X7 channel = target: T1, human P2X7 channel (Homo sapiens, UniProt Q99572); assay: human P2X7 channel assay by automated patch-clamp (QPatch16X, whole-cell voltage clamp); format: cell-based; details: HEK-293 cells expressing the P2X7 channels; current evoked by 100 microM BzATP; held at -80 mV; room temperature; read-out: hP2X7 (IC50; nM)
T1 construct: expressed in transfected cells; host or cells: HEK-293
T1 sequence (Q99572 1-595): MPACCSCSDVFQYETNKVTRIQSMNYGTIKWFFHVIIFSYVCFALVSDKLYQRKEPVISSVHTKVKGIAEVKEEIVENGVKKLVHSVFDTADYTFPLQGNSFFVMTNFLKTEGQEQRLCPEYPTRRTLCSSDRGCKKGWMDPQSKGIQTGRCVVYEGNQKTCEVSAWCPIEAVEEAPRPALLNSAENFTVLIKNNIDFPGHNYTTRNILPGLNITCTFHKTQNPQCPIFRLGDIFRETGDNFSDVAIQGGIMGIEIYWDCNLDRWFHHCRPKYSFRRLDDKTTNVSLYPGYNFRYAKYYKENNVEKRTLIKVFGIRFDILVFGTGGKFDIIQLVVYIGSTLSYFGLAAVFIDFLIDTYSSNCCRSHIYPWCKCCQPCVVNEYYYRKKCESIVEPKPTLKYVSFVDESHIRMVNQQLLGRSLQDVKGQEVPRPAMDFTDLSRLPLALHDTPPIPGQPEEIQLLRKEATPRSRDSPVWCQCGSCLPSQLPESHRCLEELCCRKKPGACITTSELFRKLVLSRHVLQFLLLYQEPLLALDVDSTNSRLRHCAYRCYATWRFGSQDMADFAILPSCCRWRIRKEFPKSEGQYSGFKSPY
Description: In order to directly monitor the block of P2X7 channel, an electrophysiological assay was developed and implemented on the QPatch16X automated electrophysiology instrument.
HEK-293 cells expressing the P2X7 channels were cultured in modified EMEM.
72 hours before experiment, 5 million cells were seeded onto T225 flasks. Just before the experiment cells were washed twice, detached from the flask with trypsin-EDTA, re-suspended in the suspension solution and placed on the QPatch 16x.
The compounds (20 mM in a 100% DMSO) stored at -20°C were prepared the day of the experiment (a first dilution 1:20 in 100% DMSO to prepare a 1 mM stock solution, then a 1 microM solution in external solution + a serial dilution 1:10).
The standard whole-cell voltage clamp experiments were performed at room temperature. For these experiments the multihole technology was used and the data were sampled at 2 KHz.
The intracellular solution contained (mM) 135 CsF, 10 NaCl, 1 EGTA, 10 HEPES, (pH 7.2 with CsOH) whereas the extracellular contained (mM) 145 NaCl, 4 KCl, 0.5 MgCl2, 1 CaCl2, 10 HEPES, 10 Glc (pH 7.4 with NaOH).
After establishment of the seal and the passage in the whole cell configuration, the cells were held at -80 mV. The P2XR7 current was evoked by applying 100 microM of BzATP alone (4 times) and then in the presence increasing concentrations of the compound under investigation (1, 10, 100 and 1000 nM).
The pre-incubation periods 5 to 8 contain increasing concentrations of the compound of interest (1, 10, 100 and 1000 nM), as illustrated in Figure.
The maximal inward current evoked by BzATP in absence or presence of increasing concentrations of the compounds under investigation was measured and normalized. The potential modulatory effect was measured as % of control and as IC50 determined fitting the dose-response curves data with the following equation: Y = 100/(1+10^(∧)((LogIC50−X)*HillSlope)) [formula] where: • X: log of concentration • Y: normalized response, 100% down to 0%, decreasing as X increases. • LogIC50: same log units as X • HillSlope: slope factor or HS, unitless

rat P2X7R = target: T2, rat P2X7R (Rattus norvegicus, UniProt Q64663); assay: rat P2X7 Ca2+ influx assay, Screen Quest Fluo-8 No Wash Calcium Assay Kit (FLIPRTETRA); format: cell-based; details: HEK-293 cells stably transfected with rat P2X7R; BzATP at ~EC80; 5' incubation with compound; read-out: rP2X7 (IC50; nM)
T2 construct: expressed in transfected cells; host or cells: HEK-293 (stably transfected)
T2 sequence (Q64663 1-595): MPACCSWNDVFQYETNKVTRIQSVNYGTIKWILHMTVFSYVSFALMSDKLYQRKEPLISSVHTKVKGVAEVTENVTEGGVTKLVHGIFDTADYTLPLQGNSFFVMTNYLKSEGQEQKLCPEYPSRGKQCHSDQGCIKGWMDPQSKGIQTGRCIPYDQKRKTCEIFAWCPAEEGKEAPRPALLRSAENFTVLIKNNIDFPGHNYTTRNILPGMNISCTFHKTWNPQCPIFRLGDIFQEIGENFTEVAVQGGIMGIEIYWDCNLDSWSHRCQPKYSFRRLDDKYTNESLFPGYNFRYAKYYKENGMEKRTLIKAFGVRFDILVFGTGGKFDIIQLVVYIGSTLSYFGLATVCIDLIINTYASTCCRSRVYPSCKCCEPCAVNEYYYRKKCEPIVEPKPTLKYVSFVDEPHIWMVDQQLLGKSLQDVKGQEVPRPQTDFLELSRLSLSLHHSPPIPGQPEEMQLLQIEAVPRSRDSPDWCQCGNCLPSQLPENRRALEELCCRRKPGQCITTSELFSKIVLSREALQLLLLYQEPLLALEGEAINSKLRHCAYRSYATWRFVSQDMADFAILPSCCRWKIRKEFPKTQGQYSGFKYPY
Description: Ca^2+ influx was measured in HEK-293 cells stably transfected with the receptor using Screen Quest™ Fluo-8 No Wash Calcium Assay Kit (AAt Bioquest®). Briefly, once inside the cells, the lipophilic blocking groups of Fluo-8 are cleaved by non-specific cell esterases, resulting in a negatively-charged fluorescent-dye that stays inside cells. Its fluorescence increases upon binding to calcium. When HEK-293/P2X7 cells were stimulated with BzATP, Ca^2+ entered the cells and the fluorescence of Fluo-8 NW increaseed. The dye absorption spectrum was compatible with excitation at 488 nm by argon laser sources and its emission wavelength was in the range of 515-575 nm. […]
Compounds were tested at FLIPRTETRA according to the following method: • first injection at FLIPRTETRA of 10 µL of 3x test compound (in Tyrode's buffer 0.3 mM Ca^2+ / Mg^2+-free + DMSO 0.5% final concentration) • 5' incubation • second injection at FLIPRTETRA of 15 µL of 3x BzATP at ∼EC80 (in Tyrode's buffer 0.3 mM Ca^2+ / Mg^2+-free + BSA 0.0003% final concentration) • Fluorescence recording for 3' […]
The effect of the test compounds was measured as percent inhibition vs the reference antagonist and IC50 values were calculated accordingly.

[1] = metabolic stability in mouse liver microsomes; format: in vitro ADME; details: 1 µM test compound, 1 mg/mL protein, pH 7.4, 0-60 minutes
Description: In vitro evaluation of test compounds for metabolic stability using Rat or Mouse liver
Test System Rat or Mouse Liver Microsomes
• Test compound concentration: 1 µM • Time Points: 0, 5, 10, 30 and 60 minutes • Final Protein concentration: 1 mg/mL • Number of Replicates: Two • Potassium Phosphate Buffer pH 7.4 100 mM • End Point: % Remaining of Test compound, Half life, Clint • Bioanalysis by LC-MS/MS
10 mM stock solution of test compound were prepared in DMSO and dilute with water: acetonitrile (1:1) to a concentration of 1 mM. Working concentration of 100 µM were prepared by further dilution with water: acetonitrile (1: 1).
100 mL of Milli Q water will be added to K2HPO4 (1.398 g) and KH2PO4 (0.27 g) to get final pH 7.4.
Preincubation mixtures: 2.5 µL Test Cpd. + 75 µL Liver microsomes @ 3.33 mg/mL + 85 µL of 100 mM potassium phosphate buffer (Preincubate for 10 min @ 37°C)
60 min w/o cofactor: 32.5 µL of Preincubation mixture + 17.5 µL of 100 mM potassium phosphate buffer (Incubate for 60 min @ 37°C)
0 min sample: 16.25 µL of Preincubation mixture + 200 µL of acetonitrile containing internal standard + 8.75 µL of cofactor Incubation mixture 62 µL of cofactor (2.5 mM) + Remaining incubation mixture (Incubated for 60 min@ 37°C).
Sample preparation: 25 µL incubation mixture + 200 µL of acetonitrile containing internal standard + Vortex 5 min @ 1200 rpm + Centrifuge 10 min @ 4000 rpm. […]

Row | Compound | IC50 (human P2X7 channel) | IC50 (rat P2X7R) | Mouse Liver Microsomal Clearance (Cli; µL/min/mg) [1]
1 | 2-chloro-N-{2-[4-(cyclopropyl)-1,3-thiazol-5-yl]-2-(4,4-difluoropiperidin-1-yl)ethyl}-5-(5-fluoropyrimidin-2-yl)benzamide [Compound 4] | 103 nM |  | 
2 | O=C(NCC(c1cnc(C(F)F)s1)N1CCOCC1)c1cc(-c2ncc(F)cn2)ccc1Cl (racemic) [Compound 1, (±)-2-chloro-N-{2-[2-(difluoromethyl)-1,3-thiazol-5-yl]-2-(morpholin-4-yl)ethyl}-5-(5-fluoropyrimidin-2-yl)benzamide] | 47.1 nM | 66 nM | 
3 | O=C(NCC(c1scnc1CO)N1CCC(F)(F)CC1)c1cc(-c2ncc(F)cn2)ccc1Cl (centres unmarked) [Compound 5, 2-chloro-N-{2-[4-(hydroxymethyl)-1,3-thiazol-5-yl]-2-(4,4-difluoropiperidin-1-yl)ethyl}-5-(5-fluoropyrimidin-2-yl)benzamide] | 64.6 nM |  | 
4 | O=C(NCC(c1cnc(CF)s1)N1CCOCC1)c1cc(-c2ncc(F)cn2)ccc1Cl (centres unmarked) [Compound 7, 2-chloro-N-{2-[2-(fluoromethyl)-1,3-thiazol-5-yl]-2-(morpholin-4-yl)ethyl}-5-(5-fluoropyrimidin-2-yl)benzamide] | 38.3 nM |  | 
5 | C#Cc1ncc(C(CNC(=O)c2cc(-c3ncc(F)cn3)ccc2Cl)N2CCC(F)(F)CC2)s1 (centres unmarked) [Compound 9, 2-chloro-N-[2-(4,4-difluoropiperidin-1-yl)-2-(2-ethynyl-1,3-thiazol-5-yl)ethyl]-5-(5-fluoropyrimidin-2-yl)benzamide] | 39.2 nM |  | 

Now those with a lower IC50 (human P2X7 channel), led by results:

Row | IC50 (human P2X7 channel) | IC50 (rat P2X7R) | Mouse Liver Microsomal Clearance (Cli; µL/min/mg) [1] | Compound
6 | 27 nM | 48 nM |  | O=C(NCC(c1cnc(C(F)F)s1)N1CCOCC1)c1cc(-c2ncc(F)cn2)ccc1Cl (single isomer, unassigned; (-)) [Compound 3, (-)-2-chloro-N-{2-[2-(difluoromethyl)-1,3-thiazol-5-yl]-2-(morpholin-4-yl)ethyl}-5-(5-fluoropyrimidin-2-yl)benzamide]
7 | 33.3 nM |  | 47.3 µL/min/mg | O=C(NCC(c1scnc1CF)N1CCC(F)(F)CC1)c1cc(-c2ncc(F)cn2)ccc1Cl (centres unmarked) [Compound 6, 2-chloro-N-{2-[4-(fluoromethyl)-1,3-thiazol-5-yl]-2-(4,4-difluoropiperidin-1-yl)ethyl}-5-(5-fluoropyrimidin-2-yl)benzamide]
8 | 20.3 nM |  |  | O=C(NCC(c1cnc(CF)s1)N1CCC(F)(F)CC1)c1cc(-c2ncc(F)cn2)ccc1Cl (centres unmarked) [Compound 8, 2-chloro-N-{2-[2-(fluoromethyl)-1,3-thiazol-5-yl]-2-(4,4-difluoropiperidin-1-yl)ethyl}-5-(5-fluoropyrimidin-2-yl)benzamide]
